In patent US20040014676A1, “SRC kinase inhibitors useful for treating osteoporosis” (priority 2001, published 2004):

Target: T1, Src kinase (Homo sapiens, UniProt P12931)
T1 construct: purchased Upstate Bioteolnology (sic; Upstate Biotechnology); later HMR stock 27597-019E1 #14-117
Assay: Phosphorylation assay of Src kinase inhibitors (radiometric, 96 well filter plate)
Assay type: biochemical
Conditions: duplicates, tested in the range of 400-0.098 µM; 10 µM peptide substrate (FIYGAFKKKKNH2), 5 µM unlabeled ATP, room temperature 30 min; read-out: IC50
Summary of the method: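 Radiometric filter-plate assay: Src kinase (1:100 dilution) was incubated with 10 μM peptide FIYGAFKKK-NH2, 5 μM unlabeled ATP and radiolabeled ATP for 30 min at room temperature. Reactions were stopped with 150 mM H3PO4, the peptide was captured on phosphocellulose and scintillation counted. Ki values were determined for some compounds.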

T1 sequence (P12931 whole entry): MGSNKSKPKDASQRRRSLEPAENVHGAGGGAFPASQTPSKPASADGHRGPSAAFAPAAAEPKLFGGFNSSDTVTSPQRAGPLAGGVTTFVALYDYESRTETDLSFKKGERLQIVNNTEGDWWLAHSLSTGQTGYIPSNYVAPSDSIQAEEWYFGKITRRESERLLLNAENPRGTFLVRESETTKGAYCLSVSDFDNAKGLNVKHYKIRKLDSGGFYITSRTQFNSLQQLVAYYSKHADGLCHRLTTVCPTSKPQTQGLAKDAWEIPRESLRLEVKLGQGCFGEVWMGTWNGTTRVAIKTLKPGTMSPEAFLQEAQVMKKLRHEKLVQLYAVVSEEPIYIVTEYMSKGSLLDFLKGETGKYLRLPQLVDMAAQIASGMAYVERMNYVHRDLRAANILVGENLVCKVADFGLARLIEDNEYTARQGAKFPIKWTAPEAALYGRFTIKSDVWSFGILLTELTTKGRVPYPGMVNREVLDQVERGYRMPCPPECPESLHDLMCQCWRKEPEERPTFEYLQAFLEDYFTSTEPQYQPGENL

Row | Compound | IC50 [µM]
1 | NC(=O)CNC(=O)c1cc2ccccc2cc1OCCCCNC(=O)[C@@H](N)Cc1c(F)c(F)c(F)c(F)c1F [Example 43, 3-[[4-[[2(S)-AMINO-3-(2,3,4,5,6- PENTAFLUORO)PHENYL-1-OXO]- PROPYL]AMINO]BUTOXY]- NAPHTHALENE-2- (N-ACETAMIDO)CARBOXAMIDE] | 1.38
2 | NC(=O)CCNC(=O)c1cc2ccccc2cc1OCCCCNC(=O)[C@@H](N)Cc1ccc(O)cc1 [Example 102] | 52
3 | NC(=O)CNC(=O)c1cc2ccccc2cc1OCCCCN1CCC[C@H](c2ccccc2)[C@H](N)C1=O [Example 77, 3-[4-[(2-OXO-3(R)-AMINO-4(R)- PHENYL)HEXAMETHYLENEIMIN-1- YL]BUTOXY]-NAPHTHALENE-2-(N- ACETAMIDO)CARBOXAMIDE] | 6
4 | NC(=O)CNC(=O)c1cc2ccccc2cc1OCCCCNC(=O)[C@H](Cc1ccc(O)cc1)NC=O [Example 72, 3-[4-[[[1-OXO-2-(N-FORMYLAMINO)-3- (4-HYDROXYPHENYL)]PROPYL]- (S)AMINO]BUTOXY]-NAPHTHALENE- 2-(N-ACETAMIDO)CARBOXAMIDE] | 6
5 | NC(=O)CNC(=O)c1cc2ccccc2cc1NC(=O)CCCNC(=O)[C@@H](N)Cc1ccc(O)cc1 [Example 90, 3-[[[3-[[[1-OXO-2(S)-AMINO-3- HYDROXYPHENYL)]PROPYL]AMINO]- PROPYL]CARBONYL]AMINO]- NAPHTHALENE-2-ACETAMIDO)- CARBOXAMID] | 209
6 | NC(=O)CNC(=O)c1cc2ccccc2cc1NC(=O)CCCCNC(=O)[C@@H](N)Cc1ccc(O)cc1 [Example 35, 3-[[[[[[2(S)-AMINO-3-(4-HYDROXY- PHENYL)-1-OXO]PROPYL]AMINO]- BUTYL]CARBONYL] AMINO]- NAPHTHALENE-2-(N- ACETAMIDO)CARBOXAMIDE] | 209
7 | NC(=O)CNC(=O)c1cc2ccccc2cc1OCCCCNC(=O)[C@H](N)Cc1ccc(O)cc1 [Example 56, 3-[4-[[[2(R)-AMINO-3-(4-HYDROXY- PHENYL-1-OXO]PROPYL]AMINO]- BUTOXY]-NAPHTHALENE-2-(N- ACETAMIDO)CARBOXAMIDE] | 50
8 | CNC(=O)[C@@H](Cc1ccc(C(=O)OC)cc1)C(=O)NCCCCOc1cc2ccccc2cc1C(=O)NCC(N)=O [Example 147, 3-[[4-[N-[1-OXO-2-(N-METHYLAMINO- CARBONYL)-3-[(4-(METHOXY- CARBONYL)PHENYL]]PROPYL]- AMINO]BUTOXY]-NAPHTHALENE-2- (N-ACETAMIDO)CARBOXAMIDE] | 18
9 | CC(c1ccc(Cl)c(Cl)c1)[C@H](N)C(=O)NCCCCOc1cc2ccccc2cc1C(=O)NCC(N)=O (stereo partly drawn) [Example 60, 3-[4-[[[2(S)-AMINO-3(3,4-DICHLORO- PHENYL)-1-OXO]BUTYL]AMINO]- BUTOXY]-NAPHTHALENE-2-(N- ACETAMIDO)CARBOXAMIDE] | 1.56
10 | N=C(N)NCCCC(NC(=O)c1cc2ccccc2cc1OCCCCNC(=O)[C@@H](N)Cc1ccc(O)cc1)C(N)=O (stereo partly drawn) [Example 11, 3-[4-[[2(S)-AMINO-3-(4-HYDROXY- PHENYL)-1-OXOPROPYL]AMINO]- BUTOXY]-NAPHTHALENE-2-[N- [[AMIDO][(3-AMINOIMINOMETHYL)- PROPYLAMINO]METHYL]]- CARBOXAMIDE] | 113
11 | NC(=O)CC[C@H](N)C(=O)NCCCCOc1cc2ccccc2cc1C(=O)NCC(N)=O [Example 70, 3-[4-[[(1-OXO-2(S)-AMINO-4-AMINO- CARBONYL)BUTYL]AMINO]BUTOXY]- NAPHTHALENE-2-(N-ACETAMIDO)- CARBOXAMIDE] | 370
12 | CCNC(=O)CNC(=O)c1cc2ccccc2cc1OCCCCN(C)C(=O)C(N)Cc1csc2ccccc12 (stereo not drawn) [Example 154, 3-[[[4-[3-(BENZOTHIOPHEN-3-YL)-2- AMINO-1-OXO]PROPYL](N-METHYL)- AMINO]BUTOXY]-NAPHTHALENE-2- [(N-(N-ETHYL)ACETAMIDO]- CARBOXAMIDE] | 4
13 | NC(=O)CNC(=O)c1cc2ccccc2cc1OCCCCN1CCNC(Cc2ccccc2)C1=O (stereo in doubt) [Example 30, 3-[4-[(2-OXO-3-(R)-BENZYL)- PIPERAZIN-1-YL]BUTOXY]- NAPHTHALENE-2-(N- ACETAMIDO)CARBOXAMIDE] | 8.8
14 | CC(C)C[C@H](N)C(=O)NCCCCOc1cc2ccccc2cc1C(=O)NCC(N)=O [Example 15, 3-[4-[[2(S)-AMINO-3-(ISOPROPYL)-1- OXOPROPYL]AMINO]BUTOXY]- NAPHTHALENE-2-[N-(2- AMIDOMETHYL)]CARBOXAMIDE] | 4.8
15 | NCCCCOc1cc2ccccc2cc1C(=O)NCC(N)=O [Example 26, 3-(4-AMINOBUTOXY)-NAPHTHALENE- 2-[N-ACETAMIDO]CARBOXAMIDE] | 25
16 | NC(=O)CNC(=O)c1cc2ccccc2cc1OCCCCNC(=O)[C@@H](N)Cc1cccc2ccccc12 [Example 57, 3-[4-[[[2(S)-AMINO-3-(NAPHTH-1-YL)-1- OXO]PROPYL]AMINO]BUTOXY]- NAPHTHALENE-2-(N-ACETAMIDO)- CARBOXAMIDE] | 0.37
17 | N[C@@H](Cc1ccc(O)cc1)C(=O)NCCCCOc1c(O)cc(C(=O)NCC(=O)CCCO)cc1O [Example 3, ALPHA(S)-AMINO-N-[4-[2,6-DI- HYDROXY-4-[[(5-HYDROXY-2-OXO- PENTYL)AMINO]CARBONYL]- PHENOXY] BUTYL]-4- HYDROXYBENZENEPROPANAMIDE] | ≥ 500
18 | NC(=O)CNC(=O)c1cc2ccccc2cc1OCCCCNC(=O)[C@@H](N)Cc1ccc(Cl)cc1 [Example 42, 3-[[4-[(2(S)-AMINO-3-(4-CHLORO- PHENYL)-1-OXO)PROPYL]AMINO]- BUTOXY]-NAPHTHALENE-2- (N-ACETAMIDO)CARBOXAMIDE] | 0.88
19 | CN[C@@H](Cc1ccccc1)C(=O)NCCCCOc1cc2ccccc2cc1C(=O)NCC(N)=O [Example 67, 3-[4-[[(1-OXO-2(S)-METHYLAMINO-3- PHENYL)PROPYL]AMINO]BUTOXY]- NAPHTHALENE-2-(N-ACETAMIDO)- CARBOXAMIDE] | 2.3
20 | NC(=O)CNC(=O)c1cc2ccccc2cc1OCc1cccc(NC(=O)[C@@H](N)Cc2ccc(O)cc2)c1 [Example 96, 3-[3-[[[1-OXO-2(S)-AMINO-3-(4- HYDROXYPHENYL)]PROPYL]AMINO]- BENZYLOXY]NAPHTHALENE-2-(N- ACETAMIDO)CARBOXAMIDE] | 7.1
21 | NC(=O)CNC(=O)c1cc2ccccc2cc1OCCCCNC(=O)[C@H](Cc1ccc(O)cc1)NC(=O)OCc1ccccc1 [Example 18, 3-[4-[[2(S)-(N-BENZYLOXY- CARBONYL)AMINO-3-(4-HYDROXY- PHENYL)-1-OXOPROPYL]AMINO]- BUTOXY]-NAPHTHALENE-2-[N-(2- AMIDOMETHYL)]CARBOXAMIDE] | 32
22 | N#C/C(=C\c1ccc(O)cc1)C(=O)NCCCCOc1cc2ccccc2cc1C(=O)NCC(N)=O [Example 149, 3-[[4-[N-[1-OXO-2-(CYANO)-3-(4- HYDROXYPHENYL)]PROPEN-2-YL]- AMINO] BUTOXY]-NAPHTHALENE-2- [N-ACETAMIDO]CARBOXAMIDE] | 27
23 | NC(=O)C(Cc1ccccc1)NC(=O)c1cc2ccccc2cc1OCCCCNC(=O)[C@@H](N)Cc1ccc(O)cc1 (stereo partly drawn) [Example 10, 3-[4-[[2(S)-AMINO-3-(4-HYDROXY- PHENYL)-1-OXOPROPYL]AMINO]- BUTOXY]-NAPHTHALENE-2-[N- [(AMIDO)(BENZYL)METHYL]]- CARBOXAMIDE] | ≥ 500
24 | NC(=O)CNC(=O)c1cc2ccccc2cc1OCCCCNC(=O)[C@H](Cc1ccc(O)cc1)NC(=O)c1ccccc1 [Example 17, 3-[4-[[2(S)-(N-BENZOYLAMINO)-3-(4- HYDROXYPHENYL)-1-OXOPROPYL]- AMINO]BUTOXY]-NAPHTHALENE-2- [N-(2-AMIDOMETHYL)]CARBOXAMIDE] | 23
